Assay [1] deals with Anguilla japonica leptocephali. Put plainly: Induction of Anguilla japonica metamorphosis by T4 treatment in 23° C. breeding water. The assay is classed as in vivo. Details: key: Y: Metamorp completed (seed production completed).; Nd: Dead. An excerpt:
(§1) Stage 1: Starting phase of metamorphosis. The rostral end is rounded, and intestinal degeneration starts.
(§2) Stage 2: Peak phase of metamorphosis. Intestinal degeneration becomes pronounced. In the second half, the anus reaches to near the last vertical blood vessel (VBV last).
(§3) Stage 3: Late phase of metamorphosis. The preanal length (PAL) becomes equal to or shorter than the last vertical blood vessel length (VBV last Length) (PAL VBV last Length). The body height is apparently low.
(§4) Stage 4: Pre-glass eel stage. Almost the eel form, but the body height still remains. Melanophores on the body surface or endogenous melanophores are not yet seen.
(§5) Elver stage: Juvenile stage. Food intake can be identified.
(§6) A thyroid hormone (e.g., thyroxine (T4)) is adjusted to 50 to 100 mM in a 1- to 2-mL volume messflask. As a solvent, known solvents (water, alcohol) can be used. Ethanol is preferably used as the solvent.
(§7) For example, using ethanol as a solvent, T4 adjusted to 50 mM is diluted 500-fold, 5,000-fold, and 50,000-fold, respectively, and adjusted to […], 1 μM, and 100 nM. A feed can be prepared in this manner.
(§8) Artificial seawater is added to a breeding vessel, and 1/1000 of the […] T4 is added to prepare […] T4 breeding water.
(§9) Half of the breeding water is replaced every two days with breeding water of the same concentration. In the case where the concentration is changed, for example, in the case of changing from 10 nM to 2 nM, 80% to the breeding water is removed, and unadjusted artificial seawater is newly added to make 1 L.
(§10) Leptocephali visually considered to have reached a total length of 40 mm (or may be 30 mm to 50 mm, may be 35 mm to 45 mm, or may also be 35 mm or more, 40 mm or more, or 45 mm or more) are selected, anesthetized with 2-phenoxyethanol, and then photographed, and the total length of each larva is measured using an image analyzing device.
(§11) The larvae are placed in 10 nM T4 breeding water and then placed in an incubator set at 23° C., and breeding is started. In first one week, observation is performed every two days, and half of the 10 nM T4 breeding water is replaced each time. The average amount of thyroid hormone in the breeding water in stage 1 is 1 nM to 100 nM, for example, and may also be 3 nM to 30 nM, or 5 nM to 20 nM.
(§12) For larvae visually judged to have reached the second half of stage 2, the concentration of the breeding water is changed. The breeding water is diluted 5-fold or 10-fold and adjusted to 2 nM or 1 nM T4, and breeding is continued. The average amount of thyroid hormone in the breeding water in stage 2 may be, as compared with the breeding water of stage 1, diluted 2-fold to 20-fold, diluted 3 to 15-fold, or diluted 5 to 10-fold as described above. The average amount of thyroid hormone in the breeding water in stage 2 is 0.1 nM to 20 nM, for example, and may also be 0.5 nM to 10 nM, 1 nM to 5 nM, or 1 nM to 2 nM.
For larvae visually judged to have reached stage 3, the breeding water is quickly changed 0.2 nM T4 breeding water, which is a 5-fold dilution of 1 nM T4 breeding water, and further changed to 0.1 nM T4 breeding water on the following day. […] Also, in larvae whose anus position has not reached the last vertical hemal spine, when they are judged to be on the brink of stage 3, the concentration is changed as above. […]

Assay [2] has as its system Anguilla japonica leptocephali. Described as above. In kind it is in vivo. Details: key: Y: Metamorphosis completed (seed production completed).; Nd: Dead.; Nf: Food intake unidentified.; Ng: Not metamorphosed into glass eels.
Excerpt: as §1, §2, §3, §4, §5, §6, §7, §8, §9, §10, §11, §12
For larvae visually judged to have reached stage 3, the breeding water is quickly changed 0.2 nM T4 breeding water, which is a 5-fold dilution of 1 nM T4 breeding water, and further changed to 0.1 nM T4 breeding water on the following day. […] Also, in larvae whose anus position has not reached the last vertical hemal spine, when they are judged to be on the brink of stage 3, the concentration is changed as above. The average amount of thyroid hormone in the breeding water in stage 3 may be, as compared with the breeding water of stage 2, diluted 2-fold to 50-fold, diluted 3 to 15-fold, diluted 4 to 6-fold, or diluted 5-fold as described above. The average amount of thyroid hormone in the breeding water in stage 3 is 0.01 nM to 2 nM, for example, and may also be 0.05 nM to 1 nM, 0.1 nM to 0.5 nM, or 0.1 nM to 0.2 nM. […] That is, the concentration may be changed such that the thyroid hormone becomes undetectable in the breeding water in the course of stage 3.
In stage 3, breeding is continuously performed in the 0.1 nM T4 breeding water. […]

In the case of `N[C@@H](Cc1cc(I)c(Oc2cc(I)c(O)c(I)c2)c(I)c1)C(=O)O` [T4, thyroxine], the Elver result in assay [1] (individual Exp 5-4, 175 days old, total length 43.5 mm at start of T4 treatment) is on record as “Y”; in assay [1] (individual Exp 5-5, 174 days old, total length 36.1 mm at start of T4 treatment), “Y”; in assay [1] (individual Exp. 5-1, 175 days old, total length 38.5 mm at start of T4 treatment), “Y”; in assay [1] (individual Exp. 5-2, 175 days old, total length 41.3 mm at start of T4 treatment), “Y”; in assay [1] (individual Exp. 5-3, 175 days old, total length 41.7 mm at start of T4 treatment) it was “Y”; in assay [2] (individual Exp 6-2, 129 days old, total length 38.1 mm at start of T4 treatment), “Y”. The Elver result in assay [2] (individual Exp 6-3, 129 days old, total length 37.4 mm at start of T4 treatment) was “Y”; in assay [2] (individual Exp 6-4, 129 days old, total length 36.6 mm at start of T4 treatment), “Y”; in assay [2] (individual Exp 6-5, 129 days old, total length 36.4 mm at start of T4 treatment), “Ng”; in assay [2] (individual Exp 6-6, 129 days old, total length 34.6 mm at start of T4 treatment) it was “Nf”; in assay [2] (individual Exp. 6-1, 129 days old, total length 40.6 mm at start of T4 treatment) it was “Y”.

For the origin of these results see patent US20200093103A1, “BREEDING WATER FOR ANGUILLIFORMES AND METHOD FOR REARING ANGUILLIFORMES” (SHIN NIPPON BIOMEDICAL LABORATORIES, LTD., priority 2016, published 2020).
